Source: ChEMBL document CHEMBL5325421, “Discovery of novel sulfonamide chromone-oxime derivatives as potent indoleamine 2,3-dioxygenase 1 inhibitors” (Eur J Med Chem, 2023)

Columns and labels:
HeLa = assay: cells; settings: Homo sapiens, 48 h
[1] = target: T1, Indoleamine 2,3-dioxygenase 1 (Homo sapiens, UniProt P14902); assay: Inhibition of human recombinant IDO1 measured after 60 mins by fluorescence based analysis
Target sequence in this assay (P14902 whole entry): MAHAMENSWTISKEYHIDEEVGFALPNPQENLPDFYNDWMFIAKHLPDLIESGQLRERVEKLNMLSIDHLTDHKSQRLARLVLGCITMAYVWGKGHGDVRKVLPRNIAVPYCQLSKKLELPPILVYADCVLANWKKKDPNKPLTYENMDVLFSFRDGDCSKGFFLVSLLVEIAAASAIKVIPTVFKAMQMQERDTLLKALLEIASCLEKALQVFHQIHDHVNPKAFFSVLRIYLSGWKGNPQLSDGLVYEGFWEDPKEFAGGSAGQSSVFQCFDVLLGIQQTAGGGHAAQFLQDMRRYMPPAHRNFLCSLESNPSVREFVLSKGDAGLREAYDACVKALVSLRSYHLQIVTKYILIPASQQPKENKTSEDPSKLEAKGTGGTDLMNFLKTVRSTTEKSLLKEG

A549 = assay: cells; settings: Homo sapiens, A549, 48 h
SW480 = assay: cells; settings: Homo sapiens, SW480, 48 h
[2] = target: T1, Indoleamine 2,3-dioxygenase 1; assay: Inhibition of IDO1 in IFN-gamma treated human HeLa cells incubated for 48 hrs by absorbance based analysis; format: cell-based
Target sequence in this assay (P14902 whole entry): as above

HCT-116 = assay: cells; settings: Homo sapiens, HCT-116, 48 h
CT26 [3] = assay: Antitumor activity against mouse CT26 cells xenografted in BALB/c mouse model assessed as relative tumor volume growth at 100 mg/kg measured every 3 days for 21 days by caliper method relative to control; format: functional; settings: time 21 day
CT26 [4] = assay: Antitumor activity against mouse CT26 cells xenografted in BALB/c mouse model assessed as reduction in tumor weight at 100 mg/kg measured every 3 days for 21 days by caliper method relative to control; format: functional; parameters: scale not given: the % may be the effect or the level left; settings: time 21 day
[5] = Toxicity in BALB/c mouse assessed as change in body weight at 100 mg/kg measured upto 22 days; format: organism-based; settings: in vivo, 528 h, time < 22 day
[6] = Toxicity in BALB/c mouse assessed as change in body weight at 50 to 100 mg/kg measured upto 22 days; format: organism-based; settings: in vivo, 528 h, dose 50-100 mg/kg, time < 22 day
[7] = target: T1, Indoleamine 2,3-dioxygenase 1; assay: Binding affinity to human recombinant IDO1 heme iron assessed as shift in soret peak at 2 mM by UV-visible spectroscopic analysis (reference value: […])
Target sequence in this assay (P14902 whole entry, looked up): as the sequence (P14902 whole entry) above

CT26 [8] = assay: Antitumor activity against mouse CT26 cells xenografted in BALB/c mouse model assessed as reduction in tumor weight at 50 mg/kg measured every 3 days for 21 days by caliper method relative to control; format: functional; parameters: scale not given: the % may be the effect or the level left; settings: time 21 day
[9] = target: T1, Indoleamine 2,3-dioxygenase 1; assay: Binding affinity to human recombinant IDO1 assessed as dissociation constant measured for 60 sec by SPR assay; settings: dose 0.78-25 µM
Target sequence in this assay (P14902 whole entry, looked up): as the sequence (P14902 whole entry) above

[10] = Toxicity in BALB/c mouse assessed as pathological changes in lungs at 50 to 100 mg/kg; format: organism-based; settings: in vivo, dose 50-100 mg/kg
[11] = Toxicity in BALB/c mouse assessed as pathological changes in heart at 50 to 100 mg/kg; format: organism-based; settings: in vivo, dose 50-100 mg/kg
[12] = Toxicity in BALB/c mouse assessed as pathological changes in spleen at 50 to 100 mg/kg; format: organism-based; settings: in vivo, dose 50-100 mg/kg
CT26 [13] = assay: Antitumor activity against mouse CT26 cells xenografted in BALB/c mouse model assessed as relative tumor volume growth at 50 mg/kg measured every 3 days for 21 days by caliper method relative to control; format: functional; settings: time 21 day
[14] = Toxicity in BALB/c mouse assessed as pathological changes in liver at 50 to 100 mg/kg; format: organism-based; settings: in vivo, dose 50-100 mg/kg
[15] = target: T1, Indoleamine 2,3-dioxygenase 1; assay: Binding affinity to human recombinant IDO1 assessed as dissociation rate constant measured for 60 sec by SPR assay
Target sequence in this assay (P14902 whole entry): as above

[16] = Toxicity in BALB/c mouse assessed as pathological changes in kidney at 50 to 100 mg/kg; format: organism-based; settings: in vivo, dose 50-100 mg/kg

Structure (SMILES)	IC50 (HeLa) [µM]	IC50 [1] [µM]	IC50 (A549) [µM]	IC50 (SW480) [µM]	IC50 [2] [µM]	IC50 (HCT-116) [µM]	also measured
Cc1ccc2/c(=N/O)cc(C(=O)N3CCN(S(=O)(=O)c4ccc(F)cc4)CC3)oc2c1	> 50	9.18	> 50	31.2	9.29	34.8	
COc1ccc2/c(=N/O)cc(C(=O)N3CCN(S(=O)(=O)c4ccc(Br)cc4)CC3)oc2c1	> 50	9.42	> 50	> 50	> 10	18.5	
COc1ccc(S(=O)(=O)N2CCN(C(=O)c3c/c(=N\O)c4ccc(C)cc4o3)CC2)cc1	> 50	9.45	41.4	17.6	> 10	1.48	
COc1ccc2/c(=N/O)cc(C(=O)N3CCN(S(=O)(=O)c4ccc(C(F)(F)F)cc4)CC3)oc2c1	> 50	2.69	> 50	> 50	6.37	> 50	
COc1ccc(S(=O)(=O)N2CCN(C(=O)c3c/c(=N\O)c4ccc(C)cc4o3)CC2)cc1OC	> 50	6.23	> 50	> 50	7.8	> 50	
Cc1ccc2/c(=N/O)cc(C(=O)N3CCN(S(=O)(=O)c4ccc(Br)cc4)CC3)oc2c1	> 50	> 10	46.1	> 50	> 10	28.3	
COc1ccc2/c(=N/O)cc(C(=O)N3CCN(S(=O)(=O)c4ccccc4C)CC3)oc2c1	> 50	> 10	> 50	> 50	> 10	23.5	
COc1ccc2/c(=N/O)cc(C(=O)N3CCN(S(=O)(=O)c4cccc([N+](=O)[O-])c4)CC3)oc2c1	> 50	1.95	> 50	> 50	4.46	19.4	
COc1ccc2/c(=N/O)cc(C(=O)N3CCN(S(=O)(=O)c4ccccc4C(F)(F)F)CC3)oc2c1	38	8.85	> 50	> 50	> 10	> 50	
Cc1ccc2/c(=N/O)cc(C(=O)N3CCN(S(=O)(=O)c4ccc(Cl)cc4)CC3)oc2c1	> 50	> 10	> 50	> 50	> 10	15.2	
COc1ccc2/c(=N/O)cc(C(=O)N3CCN(S(=O)(=O)c4ccc([N+](=O)[O-])cc4)CC3)oc2c1	30.1	3.58	> 50	> 50	5.66	> 50	
NS(=O)(=O)NCCNc1nonc1/C(=N/O)Nc1ccc(F)c(Br)c1 [EPACADOSTAT]	> 50		> 50	> 50		> 50	
COc1ccc2/c(=N/O)cc(C(=O)N3CCN(S(=O)(=O)c4ccc(Cl)cc4)CC3)oc2c1	> 50	7.07	> 50	11.6	7.78	42	
COc1ccc2/c(=N/O)cc(C(=O)N3CCN(S(=O)(=O)c4cccc(Br)c4)CC3)oc2c1	44.8	6.14	> 50	> 50	9.81	> 50	
COc1ccc2/c(=N/O)cc(C(=O)N3CCN(S(=O)(=O)c4ccc(C)cc4)CC3)oc2c1	20.1	> 10	36.9	33.1	> 10	31.1	
COc1ccc2/c(=N/O)cc(C(=O)N3CCN(S(=O)(=O)c4ccc(OC)c(OC)c4)CC3)oc2c1	34	0.92	> 50	> 50	1.68	47.8	
COc1ccc2/c(=N/O)cc(C(=O)N3CCN(S(=O)(=O)c4ccccc4Cl)CC3)oc2c1	> 50	> 10	> 50	> 50	> 10	> 50	
Nc1nonc1C(=NO)Nc1ccc(F)c(Cl)c1							Activity (CT26 [3]): 26.05%; Activity (CT26 [4]): 70.9%; Activity [5]: Non-Toxic
Cc1ccc2/c(=N/O)cc(C(=O)N3CCN(S(=O)(=O)c4cccc([N+](=O)[O-])c4)CC3)oc2c1	29.4	7.52	> 50	17.1	8.84	6.44	
Cn1cc(C[C@H](N)C(=O)O)c2ccccc21 [(L)-1-METHYLTRYPTOPHAN]							Activity (CT26 [4]): 45.6%; Activity [5]: Non-Toxic
COc1ccc2/c(=N/O)cc(C(=O)N3CCN(S(=O)(=O)c4ccc(Cl)c(Cl)c4)CC3)oc2c1	> 50	3.73	> 50	> 50	7.61	> 50	
COc1ccc2/c(=N/O)cc(C(=O)N3CCN(S(=O)(=O)c4ccc(F)cc4)CC3)oc2c1	> 50	5.72	> 50	12.4	7.23	> 50	
COc1ccc2/c(=N/O)cc(C(=O)N3CCN(S(=O)(=O)c4ccc(F)c(F)c4)CC3)oc2c1	> 50	0.64	> 50	28.6	1.04	> 50	Activity [6]: Non-Toxic; Activity [7]: 421 nm; Activity (CT26 [8]): 36.2%; Activity (CT26 [3]): 38.01%; Activity [9]: Dose-Dependent Effect; Activity [10]: Non-Toxic; Activity [11]: Non-Toxic; Activity (CT26 [4]): 60.4%; Activity [12]: Non-Toxic; Activity (CT26 [13]): 63.52%; Activity [14]: Non-Toxic; koff [15]: 0.11 s⁻¹; Activity [16]: Non-Toxic
COc1ccc2/c(=N/O)cc(C(=O)N3CCN(S(=O)(=O)c4cccc(F)c4)CC3)oc2c1	42.8	2.38	> 50	> 50	4.13	> 50	
Cc1ccc2/c(=N/O)cc(C(=O)N3CCN(S(=O)(=O)c4ccc(F)c(F)c4)CC3)oc2c1	> 50	5.59	> 50	27.6	5.75	4.18	
COc1ccc(S(=O)(=O)N2CCN(C(=O)c3c/c(=N\O)c4ccc(OC)cc4o3)CC2)cc1	36.8	6.35	> 50	39.2	8.52	29.5	
